Results from patent US7846697B2, “Method of producing a low molecular weight organic compound in a cell” (BLMaps, priority 2003, dated 2010).

Legend:
[1] = Halkier and Møller, 1989; cited from earlier work
[2] = tested on: microbial organisms

N#CC(O)c1ccc(O)cc1 (centres unmarked) [p-hydroxymandelonitrile]
stability in aqueous solutions [1]: highly unstable

COc1cc(C=O)ccc1O[C@@H]1O[C@H](CO)[C@@H](O)[C@H](O)[C@H]1O [vanillin glucoside, vanillin-β-D-glucoside]
toxicity to microbial organisms compared with the aglycon vanillin [2]: much less toxic
